Reference: patent US7041625B2, “Method to inhibit ethylene responses in plants” (Rohm and Haas Company, priority 2003, dated 2006)

Columns and labels:
[1] = test system: ethylene-induced epinasty in tomato plants; test: Tomato epinasty test, volatile gas treatment; format: in vivo, Patio variety tomato seedlings; settings: ethylene 10 ppm v/v injected four hours later, scored visually sixteen hours later, 10 = complete protection, 0 = no protection; for Gas @ 10 ppm: degree of protection against ethylene-induced epinasty, rating on a scale of 0 to 10: compound as volatile gas at 10 ppm v/v
Protocol: (§1) Objective: The test procedure is designed to determine the ability of an experimental compound to block the epinastic growth response induced by ethylene in tomato plants when the experimental compound is administered either as a volatile gas or as a component of a spray solution.
(§2) Treatment chambers are of an appropriate size for the test plants and are airtight. Each is fitted with a reusable septum to be used for injection of ethylene. Test plants are Patio variety tomato seedlings planted two plants per three inch square plastic pot.
Volatile gas treatment entails placing two pots of Patio var. tomatoes into a polystyrene 4.8 L volume treatment chamber along with one-half (upper or lower section) of a 50×9 mm plastic Petri dish containing a Gelman filter pad. The appropriate amount of experimental compound, dissolved in 1.0 ml acetone, is pipetted onto the filter pad and the chamber immediately sealed. Four hours later ethylene gas equal to 10 ppm v/v final concentration is injected into the sealed chamber. Sixteen hours later the chambers are opened in an exhaust hood, allowed to air and the plants scored visually for the degree of protection against ethylene-induced epinasty conferred by the experimental compound when compared to ethylene treated and untreated controls on a scale of 0 to 10. A rating of 10 means complete protection. A rating of 0 means no protection from the effects of ethylene. Gas treatment concentrations are volume/volume.

[2] = test system: ethylene-induced epinasty in tomato plants; test: Tomato epinasty test, spray application treatment; format: in vivo, Patio variety tomato seedlings; settings: spray at 10 ppm in 10% acetone/90% water with 0.05% Silwett L-77; air-dried four hours; ethylene 10 ppm v/v; scored visually sixteen hours later; 10 = complete protection, 0 = no protection
Protocol: as §1, §2
Spray application treatment entails using a DeVilbiss atomizer to completely cover all foliage and stems of two pots of Patio var. tomato plants with the appropriate amount of experimental compound dissolved in 10% acetone/90% water with 0.05% Silwett L-77 surfactant. Plants are air-dried in a drying hood for four hours then transferred to a 4.8 L polystyrene chamber which is sealed.
Ethylene gas equal to 10 ppm v/v final concentration is injected into the sealed chamber. Sixteen hours later the chambers are opened in an exhaust hood, allowed to air and the plants scored visually for the degree of protection against ethylene-induced epinasty conferred by the experimental compound when compared to ethylene treated and untreated controls on a scale of 0 to 10. A rating of 10 means complete protection. […]

SMILES | Gas @ 10 ppm: degree of protection against ethylene-induced epinasty, rating on a scale of 0 to 10 [1] | Spray @ 10 ppm: degree of protection against ethylene-induced epinasty, rating on a scale of 0 to 10 [2] | Gas @ 1000 ppm: degree of protection against ethylene-induced epinasty, rating on a scale of 0 to 10 ([1]; compound as volatile gas at 1000 ppm v/v)
C1=C2CCCCCC12 (centres unmarked) [Compound 1, Bicyclo[5.1.0]oct-1(8)-ene] | 8 | 0 | –
CCCCCCCCC1=CC12OCC(C)(C)CO2 [Compound 2, 6.6-Dimethyl-1-octyl-4.8-dioxa-spiro[2.5]oct-1-ene] | 0 | 0 | 4
